Molecular target: Risk1 (RT0135; rRisk1 WT) (Rickettsia typhi, UniProt Q68XM2)
Type: biochemical

Sequence of Risk1 (RT0135; rRisk1 WT) (Q68XM2 1-707): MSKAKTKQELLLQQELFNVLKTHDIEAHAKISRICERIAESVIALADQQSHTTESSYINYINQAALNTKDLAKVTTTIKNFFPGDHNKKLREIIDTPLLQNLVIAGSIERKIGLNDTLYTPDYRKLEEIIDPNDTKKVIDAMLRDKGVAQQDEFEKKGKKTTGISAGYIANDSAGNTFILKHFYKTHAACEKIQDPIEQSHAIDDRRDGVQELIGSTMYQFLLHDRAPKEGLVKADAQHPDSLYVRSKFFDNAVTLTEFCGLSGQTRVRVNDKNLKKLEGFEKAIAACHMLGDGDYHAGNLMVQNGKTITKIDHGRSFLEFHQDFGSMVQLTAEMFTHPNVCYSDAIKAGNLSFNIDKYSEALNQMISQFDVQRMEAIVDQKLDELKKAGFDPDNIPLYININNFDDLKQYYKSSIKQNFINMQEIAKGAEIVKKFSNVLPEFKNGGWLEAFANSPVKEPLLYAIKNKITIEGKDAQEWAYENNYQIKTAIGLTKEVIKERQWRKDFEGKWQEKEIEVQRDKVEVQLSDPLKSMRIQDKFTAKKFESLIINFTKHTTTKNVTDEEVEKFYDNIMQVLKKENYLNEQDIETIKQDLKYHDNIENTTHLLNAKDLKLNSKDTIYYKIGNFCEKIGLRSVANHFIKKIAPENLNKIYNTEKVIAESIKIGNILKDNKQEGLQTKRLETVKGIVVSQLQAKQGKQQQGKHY

## COC[C@H]1OC(=O)c2coc3c2[C@@]1(C)C1=C(C3=O)[C@@H]2CCC(=O)[C@@]2(C)C[C@H]1OC(C)=O [wortmannin]
  ADP-Glo in vitro kinase assay, inhibition: preincubation with wortmannin significantly inhibited, in a concentration-dependent manner

Reference: article PMC7298712 (mBio, 2020)
